Laboratory results from US7321046B2, “Analogs of dictyostatin, intermediates therefor and methods of synthesis thereof” (University of Pittsburgh, priority 2002, dated 2008).
Where two headings read alike, the source gives them in different places.

Key:
[1] = test system: human ovarian carcinoma cells (1A9); test: Antiproliferative assay (GI50, MTS); format: cell-based; settings: for antiproliferative potency / GI50 values (in words): Table 1 (1A9 and mutant lines)
Description: (§1) Representative analogs were examined for their antiproliferative activities against human ovarian carcinoma 1A9 cells and their paclitaxel-resistant mutants, 1A9/Ptx10 and 1A9/Ptx22.
[…] Cells were maintained in RPMI medium with 10% FBS in it, plated in tissue culture plates, and allowed to grow for 48-72 h before transferring them into 96-well plates. Cells were allowed to attach and grow for 48 h in 96-well plates after which they were treated with either control (DMSO) or drug in triplicate/quadruplicate. Cells were incubated with the compounds for 72 h. Cells were treated with MTS reagent before reading the plate in a Dynamax plate reader for determining the cell number. The fifty percent growth inhibition values (GI50 values) were calculated for the compounds against all the three cell lines.

[2] = test system: 1A9/Ptx10 (Phe270 −> Val) β-tubulin mutant cells; test: Antiproliferative assay (GI50, MTS), paclitaxel-resistant clone; format: cell-based, human; settings: for fold-resistance: 1A9/Ptx10 versus parental 1A9
Description: as §1
(§2) The effects of dictyostatin and its analogs on growth inhibition of parental ([…]) and paclitaxel-resistant (1A9/Ptx10 and Ptx22) ovarian adenocarcinoma cell lines were evaluated following the antiproliferative assay protocol as described earlier (Minguez et al., 2003; Choy et al., 2003; Lazo et al., 2001). Cells were maintained in RPMI medium with 10% FBS in it, plated in tissue culture plates, and allowed to grow for 48-72 h before transferring them into 96-well plates. Cells were allowed to attach and grow for 48 h in 96-well plates after which they were treated with either control (DMSO) or drug in triplicate/quadruplicate. Cells were incubated with the compounds for 72 h. Cells were treated with MTS reagent before reading the plate in a Dynamax plate reader for determining the cell number. The fifty percent growth inhibition values (GI50 values) were calculated for the compounds against all the three cell lines.

[3] = test system: 1A9/Ptx22 (Ala364 −> Thr) β-tubulin mutant cells; test: as above; format: cell-based, human; settings: for fold-resistance: 1A9/Ptx22 versus parental 1A9
Description: as §1, §2

[4] = test system: purified bovine brain tubulin; test: Tubulin polymerization assay (turbidity); format: biochemical; settings: tubulin 1 mg/mL ± MAPs ± GTP, agents at 10 and 40 μM, 0 to 30° C.
Description: The abilities of the new compounds to cause tubulin polymerization were determined under reaction conditions consisting of purified bovine brain tubulin (1 mg/mL) in the presence or absence of microtubule-associated proteins (MAPs, 0.75 mg/mL) and GTP (100 μM). Test agents were initially screened at 10 and 40 μM. In these experiments, test agent-induced assembly of soluble tubulin into polymer, with respect to the presence and absence of cofactors and at different temperatures, was monitored in a multi-cuvette, temperature-controlled spectrophotometer via development of turbidity in the solution. The initial temperature was closely controlled at 0° C., then rapidly raised to 10° C., to 20° C., then finally to 30° C. to determine both the temperature at which a test agent induced assembly as well as the extent of agent-induced assembly. The temperature increases were followed by a rapid decrease in temperature back to 0° C. to determine the cold-stability of polymer formed.
Tubulin assembly was monitored turbidimetrically in Gilford 250 spectrophotometers equipped with electronic temperature controllers as described previously (ter Haar et al., 1996). The reaction mixtures without the compounds consisted of tubulin (1 mg/ml), heat-treated MAPs (0.75 mg/ml, if present), GTP (100 μM, if present), and 0.1M (4-morpholinyl)ethane sulfonate (MeS). Baselines were established after addition of all reaction components except the compounds to the cuvettes held at 0° C. Compounds, at 10 μM or 40 μM final concentration, were then added and each reaction mixture (0.25 mL final volume) was subjected to the indicated temperature changes.

[5] = Homo sapiens, Ovarian carcinoma cell, 72 h, read-out: GI50 ± S.D., 1A9 parental cells, 72 h incubation
[6] = Homo sapiens, 1A9/ptx-10, 72 h, read-out: GI50 ± S.D., 1A9/Ptx10 (Phe270 −> Val), 72 h incubation
[7] = Homo sapiens, 1A9/ptx-22, 72 h, read-out: GI50 ± S.D., 1A9/Ptx22 (Ala364 −> Thr), 72 h incubation

SMILES | GI50 [1, 5] [nM] | antiproliferative potency / GI50 values (in words) [1] | fold-resistance [2] [fold] | GI50 [2, 6] [nM] | fold-resistance [3] [fold] | GI50 [3, 7] [nM] | test agent-induced tubulin assembly, turbidity profile (in words) [4] | GI50 ([1]; read-out: GI50 ± S.D., 1A9 parental cells, 72 h incubation) [nM] | GI50 ([2]; read-out: GI50 ± S.D., 1A9/Ptx10 (Phe270 −> Val), 72 h incubation) [nM] | GI50 ([3]; read-out: GI50 ± S.D., 1A9/Ptx22 (Ala364 −> Thr), 72 h incubation) [nM]
C=CC=CC(C)C1OC(=O)C=CC=CC(C)C(O)CC(O)C=CC(C)C(O)C(C)CCCCC(O)C1C [Compound 79, (8S,10S,14R,20R)-Tetrahydroxy-(7R,13S,15S,21S)-tetramethyl-(22S)-((1S)-methylpenta-2,4-dienyl)-oxacyclodocosa-3,5,11-trien-2-one] | 0.41 ± 0.52 | essentially equipotent to 1 | 1146 | 470 ± 70 | 14 | 5.6 ± 4.7 | especially potent among the analogs | – | – | –
C=C/C=C\[C@H](C)[C@@H]1OC(=O)/C=C\C=C\[C@@H](C)[C@@H](O)C[C@H](O)/C=C\[C@H](C)[C@H](O)[C@@H](C)C[C@@H](C)CC[C@@H](O)[C@@H]1C [dictyostatin-1, (8S,10S,14R,20R)-Tetrahydroxy-(7R,13S,15S,17S,21S)-pentamethyl-(22S)-((1S)-methylpenta-2,4-dienyl)oxacyclodocosa-3,5,11-trien-2-one, reference compound] | 0.69 ± 0.8 | – | 4.6 | 3.2 ± 2.4 | 1.9 | 1.3 ± 1 | far more potent than those of paclitaxel | – | – | –
C=C/C=C\[C@H](C)[C@H](OC(N)=O)[C@@H](C)[C@H](O)[C@@H](C)C/C(C)=C\[C@H](C)[C@@H](O)[C@@H](C)/C=C\[C@@H](O)C[C@@H]1OC(=O)[C@H](C)[C@@H](O)[C@H]1C [discodermolide, reference compound] | 1.7 ± 1.2 | – | 3.6 | 6.2 ± 3.6 | 4.1 | 7 ± 8.4 | far more potent than those of paclitaxel | – | – | –
C=C/C=C\[C@H](C)[C@H](O)[C@@H](C)[C@H](O)CC[C@H](C)C[C@H](C)[C@@H](O)[C@@H](C)/C=C\[C@@H](O)C[C@H](O)[C@H](C)/C=C/C=C\C(=O)OC [Compound 50, (2Z,4E,6R,7S,9S,10Z,12S,13R,14S,16S,19R,20S,21S,22S,23Z)-Methyl-7,9,13,19,21-penta-hydroxy-6,12,14,16,20,22-hexamethylhexacosa-2,4,10,23,25-pentaenoate] | 56 ± 16 | mid-nanomolar range | 1.4 | 79 ± 13 | 1.5 | 85 ± 2 | caused tubulin assembly at temperatures lower than 30 °C | – | – | –
C=CC=CC(C)C1OC(=O)C=CC=CC(C)C(O)CC(O)C=CC(C)C(O)C(C)CC(C)CCC(O)C1C [Compound 59, (8S,10S,14R,20S)-Tetrahydroxy-(7R,13S,15S,17S,21s)-pentamethyl-(22S)-((1S)-methylpenta-2,4-dienyl)-oxacyclodocosa-3,5,11-trien-2-one] | – | mid-nanomolar range | 5.7 | – | 2.0 | – | caused tubulin assembly at temperatures lower than 30 °C | 21 ± 14 | 120 ± 60 | 43 ± 12
